Reference: US20090137572A1, “2-substituted-4-heteroaryl-pyrimidines useful for the treatment of proliferative disorders” (priority 2004, published 2009)

Columns and labels:
Type in all cases: biochemical
CDK4-cyclin D1 = CDK4-cyclin D1 (Homo sapiens, UniProt P11802); experiment: Kinase assay (radioactive phosphate incorporation), CDK4-cyclin D1; conditions: read-out: Kinase Inhibition pIC50 CDK4-cyclin D1 (converted)
Protocol: (§1) Kinase assays. The compounds of the invention above were investigated for their ability to inhibit the enzymatic activity of various protein kinases (Table 2). This was achieved by measurement of incorporation of radioactive phosphate from ATP into appropriate polypeptide substrates. Recombinant protein kinases and kinase complexes were produced or obtained commercially. Assays were performed using 96-well plates and appropriate assay buffers (typically 25 mM β-glycerophosphate, 20 mM MOPS, 5 mM EGTA, 1 mM DTT, 1 mM […], pH 7.4), into which were added 2-4 μg of active enzyme with appropriate substrates. The reactions were initiated by addition of Mg/ATP mix (15 mM MgCl2+100 μM ATP with 30-50 kBq per well of [γ-^32P]-ATP) and mixtures incubated as required at 30° C. Reactions were stopped on ice, followed by filtration through p81 filterplates or GF/C filterplates (Whatman Polyfiltronics, Kent, UK). After washing 3 times with 75 mM aq orthophosphoric acid, plates were dried, scintillant added and incorporated radioactivity measured in a scintillation counter (TopCount, Packard Instruments, Pangbourne, Berks, UK). Compounds for kinase assay were made up as 10 mM stocks in DMSO and diluted into 10% DMSO in assay buffer.

CDK2-cycline E = CDK2-cycline E (Homo sapiens, UniProt P24941); experiment: Kinase assay (radioactive phosphate incorporation), CDK2-cyclin E; conditions: read-out: Kinase Inhibition pIC50 CDK2-cycline E (converted)
Summary of the method: (§2)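 Each recombinant kinase was combined with its polypeptide substrate in pH 7.4 assay buffer. Mg/ATP mix carrying [γ-32P]-ATP (100 μM ATP) was then added and the plate incubated at 30° C. After stopping on ice, the reaction was filtered, washed with 75 mM orthophosphoric acid, dried and counted.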

CDK1-cyclin B = CDK1-cyclin B (Homo sapiens, UniProt P06493); experiment: Kinase assay (radioactive phosphate incorporation), CDK1-cyclin B; conditions: read-out: Kinase Inhibition pIC50 CDK1-cyclin B (converted)
Sequence of CDK1-cyclin B (P06493 whole entry): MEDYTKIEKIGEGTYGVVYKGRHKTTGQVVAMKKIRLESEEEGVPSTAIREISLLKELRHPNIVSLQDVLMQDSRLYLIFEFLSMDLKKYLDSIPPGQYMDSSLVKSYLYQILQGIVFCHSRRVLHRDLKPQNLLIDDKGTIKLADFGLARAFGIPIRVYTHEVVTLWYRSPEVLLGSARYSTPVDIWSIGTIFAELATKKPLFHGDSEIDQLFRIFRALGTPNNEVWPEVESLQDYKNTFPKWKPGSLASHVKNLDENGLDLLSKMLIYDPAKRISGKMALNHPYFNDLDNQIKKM
Sequence of CDK1-cyclin B (P14635 whole entry partner): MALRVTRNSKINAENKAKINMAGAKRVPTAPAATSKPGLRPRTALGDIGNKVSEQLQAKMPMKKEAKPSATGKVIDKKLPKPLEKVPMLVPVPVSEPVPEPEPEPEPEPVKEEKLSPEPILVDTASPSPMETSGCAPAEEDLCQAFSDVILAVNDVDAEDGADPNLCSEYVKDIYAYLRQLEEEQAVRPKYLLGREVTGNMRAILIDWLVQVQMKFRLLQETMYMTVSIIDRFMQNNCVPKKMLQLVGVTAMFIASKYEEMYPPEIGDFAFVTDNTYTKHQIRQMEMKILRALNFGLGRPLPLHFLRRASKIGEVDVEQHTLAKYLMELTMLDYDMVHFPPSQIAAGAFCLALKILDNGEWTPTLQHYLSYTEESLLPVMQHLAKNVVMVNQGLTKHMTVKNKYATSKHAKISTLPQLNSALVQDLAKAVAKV
Protocol: as §1

GSK3b = GSK3b (Homo sapiens, UniProt P49841); experiment: Kinase assay (radioactive phosphate incorporation), GSK-3b; conditions: read-out: Kinase Inhibition pIC50 GSK-3b (converted)
Sequence of GSK3b (P49841 whole entry, species assumed): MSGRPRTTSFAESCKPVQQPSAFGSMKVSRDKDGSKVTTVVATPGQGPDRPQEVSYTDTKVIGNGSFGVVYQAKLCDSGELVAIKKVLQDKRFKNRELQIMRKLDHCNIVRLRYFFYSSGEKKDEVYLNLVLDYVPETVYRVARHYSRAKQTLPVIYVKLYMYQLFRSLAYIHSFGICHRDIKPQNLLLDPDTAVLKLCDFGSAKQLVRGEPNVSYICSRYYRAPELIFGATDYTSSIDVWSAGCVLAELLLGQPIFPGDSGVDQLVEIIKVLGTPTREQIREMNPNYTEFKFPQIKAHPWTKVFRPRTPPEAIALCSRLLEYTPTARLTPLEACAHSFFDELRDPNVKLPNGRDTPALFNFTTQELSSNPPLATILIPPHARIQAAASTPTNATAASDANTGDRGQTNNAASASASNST
Protocol: as §1

CDK7/cyclin H = CDK7/cyclin H (Homo sapiens, UniProt P50613); experiment: CDK 7 assay (CTD peptide substrate); conditions: read-out: Kinase Inhibition pIC50 CDK7-cyclin H (converted)
Sequence of CDK7/cyclin H (P50613 whole entry): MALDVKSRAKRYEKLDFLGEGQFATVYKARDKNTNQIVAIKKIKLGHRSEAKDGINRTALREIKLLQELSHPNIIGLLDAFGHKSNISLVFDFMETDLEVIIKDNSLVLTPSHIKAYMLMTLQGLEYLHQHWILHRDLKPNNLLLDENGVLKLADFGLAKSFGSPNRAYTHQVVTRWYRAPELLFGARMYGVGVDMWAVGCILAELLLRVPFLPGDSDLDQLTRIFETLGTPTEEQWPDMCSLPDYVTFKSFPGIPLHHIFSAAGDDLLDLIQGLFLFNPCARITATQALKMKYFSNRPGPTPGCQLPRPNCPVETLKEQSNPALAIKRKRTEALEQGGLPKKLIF
Sequence of CDK7/cyclin H (P51946 whole entry partner): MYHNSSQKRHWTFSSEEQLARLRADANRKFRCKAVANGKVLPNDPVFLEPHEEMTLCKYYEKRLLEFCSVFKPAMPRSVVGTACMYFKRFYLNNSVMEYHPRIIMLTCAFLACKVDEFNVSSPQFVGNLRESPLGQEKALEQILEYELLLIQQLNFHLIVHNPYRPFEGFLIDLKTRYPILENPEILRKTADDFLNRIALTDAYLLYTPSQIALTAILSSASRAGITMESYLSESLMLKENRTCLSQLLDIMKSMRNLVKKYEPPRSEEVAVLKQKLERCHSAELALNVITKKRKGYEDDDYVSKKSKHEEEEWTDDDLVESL
Summary of the method: (§3)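 Inhibition measured against recombinant human kinase/cyclin complex phosphorylating biotin-(Tyr-Ser-Pro-Thr-Ser-Pro-Ser)4 peptide, 100 μM radiolabelled ATP, 45 min at 30° C. Product quantified by filter capture and scintillation counting.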

CDK9/cyclin T1 = CDK9/cyclin T1 (Homo sapiens, UniProt P50750); experiment: CDK 9 assay (CTD peptide substrate); conditions: read-out: Kinase Inhibition pIC50 CDK9-cyclin T1 (converted)
Sequence of CDK9/cyclin T1 (P50750 whole entry): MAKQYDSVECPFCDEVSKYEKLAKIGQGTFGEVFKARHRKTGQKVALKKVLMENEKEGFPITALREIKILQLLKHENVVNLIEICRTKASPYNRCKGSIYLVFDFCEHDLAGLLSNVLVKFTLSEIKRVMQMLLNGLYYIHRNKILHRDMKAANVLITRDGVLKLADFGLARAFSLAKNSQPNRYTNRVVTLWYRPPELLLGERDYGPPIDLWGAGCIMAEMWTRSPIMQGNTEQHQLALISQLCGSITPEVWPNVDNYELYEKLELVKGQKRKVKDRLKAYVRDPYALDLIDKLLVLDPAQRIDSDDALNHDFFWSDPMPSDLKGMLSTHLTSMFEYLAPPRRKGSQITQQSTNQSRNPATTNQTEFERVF
Sequence of CDK9/cyclin T1 (O60563 whole entry partner): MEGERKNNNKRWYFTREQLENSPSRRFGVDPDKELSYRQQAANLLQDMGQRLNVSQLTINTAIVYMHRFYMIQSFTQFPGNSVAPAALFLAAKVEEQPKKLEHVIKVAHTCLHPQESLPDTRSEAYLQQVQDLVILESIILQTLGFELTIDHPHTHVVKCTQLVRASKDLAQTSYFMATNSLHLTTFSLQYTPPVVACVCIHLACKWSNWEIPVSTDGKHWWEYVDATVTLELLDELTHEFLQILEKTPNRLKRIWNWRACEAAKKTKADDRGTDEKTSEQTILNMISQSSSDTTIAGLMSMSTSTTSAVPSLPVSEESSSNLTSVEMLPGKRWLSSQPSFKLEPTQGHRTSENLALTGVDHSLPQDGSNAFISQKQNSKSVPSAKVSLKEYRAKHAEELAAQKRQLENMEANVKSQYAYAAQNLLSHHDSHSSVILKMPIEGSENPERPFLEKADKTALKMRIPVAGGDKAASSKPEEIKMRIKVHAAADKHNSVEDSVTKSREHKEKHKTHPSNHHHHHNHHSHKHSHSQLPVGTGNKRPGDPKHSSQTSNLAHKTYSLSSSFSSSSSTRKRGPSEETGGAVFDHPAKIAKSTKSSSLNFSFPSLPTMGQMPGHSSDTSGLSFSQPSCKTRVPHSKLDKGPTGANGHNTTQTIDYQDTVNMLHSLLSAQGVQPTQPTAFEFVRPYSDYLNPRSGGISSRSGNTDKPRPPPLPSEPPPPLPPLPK
Summary of the method: as §3

Aurora A kinase = biological target: T1, Aurora A kinase (Homo sapiens, UniProt O14965); experiment: Aurora-A (human) kinase assay (Kemptide substrate); conditions: pIC50 is -log(IC50, M); 15 μM ATP; read-out: Kinase Inhibition pIC50 Aurora A kinase (converted)
T1 construct: purchased
T1 sequence (O14965 1-403): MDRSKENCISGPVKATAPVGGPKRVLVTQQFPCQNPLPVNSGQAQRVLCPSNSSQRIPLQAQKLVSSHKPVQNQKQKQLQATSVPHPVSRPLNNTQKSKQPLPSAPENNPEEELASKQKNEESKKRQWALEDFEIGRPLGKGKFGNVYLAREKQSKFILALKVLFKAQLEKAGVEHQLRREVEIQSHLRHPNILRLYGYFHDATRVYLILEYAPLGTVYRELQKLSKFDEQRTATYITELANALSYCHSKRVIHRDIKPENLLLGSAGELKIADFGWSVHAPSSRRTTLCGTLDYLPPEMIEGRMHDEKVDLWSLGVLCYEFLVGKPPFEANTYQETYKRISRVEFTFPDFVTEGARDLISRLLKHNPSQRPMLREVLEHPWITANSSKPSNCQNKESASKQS
Summary of the method: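 Kemptide (LRRASLG, 200 μM) phosphorylation by 5-10 ng commercial aurora-A measured as [γ-33P] incorporation at 15 μM ATP with 10 mM Mg acetate, pH 7.0 MOPS buffer. Reaction ran 40 min at room temperature; acid-stopped, captured on P81 filters, scintillation read.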

[1] = biological target: T2, Flt3 (FMS-like tyrosine kinase-3) (Homo sapiens, UniProt P36888); experiment: Kinase assay (radioactive phosphate incorporation), Flt3; conditions: pIC50 is -log(IC50, M), read-out: Kinase Inhibition pIC50 Flt3 (converted)
T2 sequence (P36888 27-993): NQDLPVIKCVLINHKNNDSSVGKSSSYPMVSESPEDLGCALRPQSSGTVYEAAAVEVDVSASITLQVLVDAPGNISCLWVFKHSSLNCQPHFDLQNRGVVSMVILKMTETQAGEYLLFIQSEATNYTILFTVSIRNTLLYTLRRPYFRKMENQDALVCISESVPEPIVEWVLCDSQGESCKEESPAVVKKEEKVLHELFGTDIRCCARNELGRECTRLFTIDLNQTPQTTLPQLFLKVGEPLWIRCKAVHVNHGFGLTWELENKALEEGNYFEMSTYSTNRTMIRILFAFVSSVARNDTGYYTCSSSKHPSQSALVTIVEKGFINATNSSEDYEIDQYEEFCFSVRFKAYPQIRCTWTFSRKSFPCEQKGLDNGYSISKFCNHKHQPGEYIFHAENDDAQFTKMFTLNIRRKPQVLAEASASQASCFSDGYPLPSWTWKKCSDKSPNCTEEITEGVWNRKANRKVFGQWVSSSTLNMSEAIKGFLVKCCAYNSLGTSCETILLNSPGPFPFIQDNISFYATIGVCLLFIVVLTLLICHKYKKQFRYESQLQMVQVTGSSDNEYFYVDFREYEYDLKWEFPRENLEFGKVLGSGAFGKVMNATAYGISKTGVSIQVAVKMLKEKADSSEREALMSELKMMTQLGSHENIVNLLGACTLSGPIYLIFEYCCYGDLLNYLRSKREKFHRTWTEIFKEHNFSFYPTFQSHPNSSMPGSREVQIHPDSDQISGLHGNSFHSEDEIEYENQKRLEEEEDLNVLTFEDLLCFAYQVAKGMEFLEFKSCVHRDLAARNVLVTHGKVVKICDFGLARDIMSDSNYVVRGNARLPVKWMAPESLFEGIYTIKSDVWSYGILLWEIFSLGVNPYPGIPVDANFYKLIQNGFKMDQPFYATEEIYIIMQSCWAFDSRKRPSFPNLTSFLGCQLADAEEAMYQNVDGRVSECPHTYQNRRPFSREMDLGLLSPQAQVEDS
Summary of the method: as §2

CDK2-cyclin A = CDK2-cyclin A (Homo sapiens, UniProt P24941); experiment: Kinase assay (radioactive phosphate incorporation), CDK2-cyclin A; conditions: read-out: Kinase Inhibition pIC50 CDK2-cyclin A (converted)
Protocol: as §1

Sequence of CDK4-cyclin D1 (P11802 whole entry): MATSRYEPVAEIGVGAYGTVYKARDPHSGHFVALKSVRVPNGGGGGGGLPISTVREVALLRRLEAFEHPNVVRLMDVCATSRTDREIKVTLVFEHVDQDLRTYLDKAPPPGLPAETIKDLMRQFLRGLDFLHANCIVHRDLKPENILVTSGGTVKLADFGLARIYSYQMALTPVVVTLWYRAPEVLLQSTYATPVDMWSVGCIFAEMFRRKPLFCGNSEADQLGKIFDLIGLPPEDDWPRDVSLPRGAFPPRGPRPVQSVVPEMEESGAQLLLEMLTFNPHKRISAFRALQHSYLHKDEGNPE
Sequence of CDK4-cyclin D1 (P24385 whole entry partner): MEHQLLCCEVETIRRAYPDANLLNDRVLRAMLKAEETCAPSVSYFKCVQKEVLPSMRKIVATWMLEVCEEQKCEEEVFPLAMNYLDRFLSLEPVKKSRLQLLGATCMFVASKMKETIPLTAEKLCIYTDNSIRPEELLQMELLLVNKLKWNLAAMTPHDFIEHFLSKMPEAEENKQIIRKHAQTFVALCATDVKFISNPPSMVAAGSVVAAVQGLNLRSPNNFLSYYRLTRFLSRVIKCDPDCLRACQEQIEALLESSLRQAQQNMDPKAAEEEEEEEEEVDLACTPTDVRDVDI

| SMILES | IC50 (CDK4-cyclin D1) [nM] | IC50 (CDK2-cycline E) [nM] | IC50 (CDK1-cyclin B) [nM] | IC50 (GSK3b) [nM] | IC50 (CDK7/cyclin H) [nM] | IC50 (CDK9/cyclin T1) [nM] | IC50 (Aurora A kinase) [nM] | IC50 [1] [nM] | IC50 (CDK2-cyclin A) [nM] |
| --- | --- | --- | --- | --- | --- | --- | --- | --- | --- |
| Cc1ccc(Nc2nccc(-c3sc(NC(C)(C)C)nc3C)n2)cc1[N+](=O)[O-] [Compound 2, [4-(2-tert-Butylamino-4-methyl-thiazol-5-yl)-pyrimidin-2-yl]-(4-methyl-3-nitro-phenyl)-amine] | 316 | 1580 | 1260 | 631 | 794 | 316 |  |  |  |
| CNc1nc(C)c(-c2ccnc(Nc3cc(OC)c(OC)c(OC)c3)n2)s1 [Compound 23, [4-(4-Methyl-2-methylamino-thiazol-5-yl)-pyrimidin-2-yl]-(3,4,5-trimethoxy-phenyl)-amine] | 2000 |  | 1000 | 794 | 794 | 20 | 3.98 |  |  |
| CNc1nc(C)c(-c2ccnc(Nc3cccc(CC(=O)OCCOC)c3)n2)s1 [Compound 44, {3-[4-(4-Methyl-2-methylamino-thiazol-5-yl)-pyrimidin-2-ylamino]-phenyl}-acetic acid 2-methoxy-ethyl ester] | 2000 |  | 2000 |  | 3160 | 251 |  | 63.1 | 2000 |
| CC(=O)N1CCN(c2cccc(Nc3nccc(-c4sc(C)nc4C)n3)c2)CC1 [Compound 46, 1-(4-{3-[4-(2,4-Dimethyl-thiazol-5-yl)-pyrimidin-2-ylamino]-phenyl}-piperazin-1-yl)-ethanone] |  |  | 12600 | 3160 | 5010 | 1000 |  | 200 |  |
| CNc1nc(C)c(-c2ccnc(Nc3cc(CO)cc(CO)c3)n2)s1 [Compound 48, {3-Hydroxymethyl-5-[4-(4-methyl-2-methylamino-thiazol-5-yl)-pyrimidin-2-ylamino]-phenyl}-methanol] | 631 | 251 | 631 |  |  |  | 50.1 | 63.1 | 631 |
| Cc1nc(C)c(-c2ccnc(Nc3cccc(CNS(C)(=O)=O)c3)n2)s1 [Compound 49, N-{3-[4-(2,4-Dimethyl-thiazol-5-yl)-pyrimidin-2-ylamino]-benzyl}-methanesulfonamide] | 1000 | 25.1 | 200 |  |  | 316 | 5.01 | 200 | 158 |
| Cc1nc(NC(C)(C)C)sc1-c1ccnc(Nc2cccc([N+](=O)[O-])c2)n1 [Compound 51, [4-(2-tert-Butylamino-4-methyl-thiazol-5-yl)-pyrimidin-2-yl]-(3-nitro-phenyl)-amine] | 631 | 631 | 1580 | 631 |  |  | 100 |  |  |
| CCNc1nc(C)c(-c2ccnc(Nc3ccc(N4CCN(C(C)=O)CC4)cc3)n2)s1 [Compound 58, 1-(4-{4-[4-(2-Ethylamino-4-methyl-thiazol-5-yl)-pyrimidin-2-ylamino]-phenyl}-piperazin-1-yl)-ethanone] | 251 | 631 | 5010 |  |  |  |  |  | 1000 |
| CCOC(=O)Cc1cccc(NS(=O)(=O)c2ccc(Nc3nccc(-c4sc(NC)nc4C)n3)cc2)c1 [Compound 62, (3-{4-[4-(4-Methyl-2-methylamino-thiazol-5-yl)-pyrimidin-2-ylamino]-benzenesulfonylamino}-phenyl)-acetic acid ethyl ester] |  | 79.4 |  |  |  | 6310 |  |  | 3160 |
| CCNS(=O)(=O)c1ccc(Nc2nccc(-c3sc(C)nc3C)n2)cc1 [Compound 66, 4-[4-(2,4-Dimethyl-thiazol-5-yl)-pyrimidin-2-ylamino]-N-ethyl-benzenesulfonamide] |  | 63.1 |  |  |  |  | 316 |  | 50.1 |
| CCNc1nc(C)c(-c2ccnc(Nc3ccc(S(=O)(=O)NCc4ccccc4)cc3)n2)s1 [Compound 71, N-Benzyl-4-[4-(2-ethylamino-4-methyl-thiazol-5-yl)-pyrimidin-2-ylamino]-benzenesulfonamide] | 7940 | 631 |  |  |  | 398 |  |  | 3160 |
| CNc1nc(C)c(-c2ccnc(Nc3ccc(S(=O)(=O)NCc4ccccc4)cc3)n2)s1 [Compound 72, N-Benzyl-4-[4-(4-methyl-2-methylamino-thiazol-5-yl)-pyrimidin-2-ylamino]-benzenesulfonamide] |  | 158 | 794 |  |  | 6310 | 2510 |  | 1260 |
| Cc1nc(N)sc1-c1ccnc(Nc2ccc(S(=O)(=O)NCc3ccccc3)cc2)n1 [Compound 73, 4-[4-(2-Amino-4-methyl-thiazol-5-yl)-pyrimidin-2-ylamino]-N-benzyl-benzenesulfonamide] |  | 12.6 | 100 |  | 1000 | 158 | 316 |  | 39.8 |
| Cc1nc(C)c(-c2ccnc(Nc3ccc(S(=O)(=O)NCc4ccccc4)cc3)n2)s1 [Compound 74, N-Benzyl-4-[4-(2,4-dimethyl-thiazol-5-yl)-pyrimidin-2-ylamino]-benzenesulfonamide] |  | 398 |  |  |  |  | 126 |  | 2000 |
| CC(=O)NCc1cccc(Nc2nccc(-c3sc(-c4cccnc4)nc3C)n2)c1 [Compound 101, N-{3-[4-(4-Methyl-2-pyridin-3-yl-thiazol-5-yl)-pyrimidin-2-ylamino]-benzyl}-acetamide] | 3980 | 1260 | 3160 | 7940 | 3980 | 5010 | 126 | 316 |  |
